Laboratory results: US9758494B2, “N-(oxazol-2-yl)-aryl-carboxylic acid amides and use thereof as herbicides” (BAYER CROPSCIENCE AG, priority 2012, dated 2017)

Tests used:
Type in all cases: in vivo
Oryza sativa (Rice) [1] = assay: Pre-emergence, damage of crop plants
Description: (§1) Seeds of monocotyledonous and dicotyledonous weed plants and crop plants are laid out in wood-fiber pots in sandy loam and covered with soil. The compounds according to the invention, formulated in the form of wettable powders (WP) or as emulsion concentrates (EC), are then applied to the surface of the soil cover in the form of an aqueous suspension or emulsion at a water application rate equating to 600 to 800 l/ha, with addition of 0.2% wetting agent. After the treatment, the pots are placed in a greenhouse and kept under good growth conditions for the test plants. The damage to the test plants is assessed visually after a test period of 3 weeks by comparison with untreated controls (herbicidal activity in percent (%): 100% activity=the plants have died, 0% activity=like control plants). Here, for example, compounds No. 1-163, 1-171, 1-172, 1-283, 1-284, 1-294, 1-295, 1-334, 10-001 and 11-343, at an application rate of 320 g/ha, have an activity of at least 80% against Veronica persica.
(§2) In the tables below, the properties of the compounds according to the invention are compared to those of the structurally most similar compounds known from WO 2012/028579 A1. These tests were carried out by the pre- and post-emergence method under the conditions mentioned under item 1 and item 2. Here, the herbicidal activity against various harmful plants and the damage of some important crop plants were compared at different dosages.

[2] = tested on: Brassica napus (Oilseed Rape); assay: Pre-emergence, damage of crop plants
Description: as §1, §2

[3] = tested on: Triticum aestivum (Wheat); assay: Pre-emergence, damage of crop plants
Description: as §1, §2

Lolium multiflorum [4] = assay: Post-emergence herbicidal action
Method: (§3) Seeds of monocotyledonous and dicotyledonous weed plants and crop plants are laid out in wood fiber pots in sandy loam, covered with soil and cultivated in a greenhouse under good growth conditions. 2 to 3 weeks after sowing, the test plants are treated at the one-leaf stage. The compounds according to the invention, formulated in the form of wettable powders (WP) or as emulsion concentrates (EC), are then sprayed onto the green parts of the plants in the form of an aqueous suspension or emulsion at a water application rate equating to 600 to 800 l/ha, with addition of 0.2% wetting agent. After the test plants have been left to stand in the greenhouse under optimal growth conditions for about 3 weeks, the action of the preparations is assessed visually in comparison to untreated controls (herbicidal action in percent (%): 100% activity=the plants have died, 0% activity=like control plants). Here, for example, compounds No. 1-163, 1-171, 1-172, 1-173, 1-254, 1-283, 1-284, 1-293, 1-294 and 1-334, at an application rate of 80 g/ha, have an activity of at least 80% against Abutilon theophrasti and Amaranthus retroflexus.
as §2

Avena fatua [5] = assay: Post-emergence herbicidal action; conditions: Dosage 80/ha (Table P)
Method: as §3, §2

Setaria viridis = assay: Post-emergence herbicidal action
Method: as §3, §2

Alopecurus myosuroides [6] = assay: Post-emergence herbicidal action; conditions: Dosage 80/ha (Table P)
Method: as §3, §2

Oryza sativa (Rice) [7] = assay: Post-emergence, damage of crop plants
Method: as §3, §2

[8] = tested on: Brassica napus (Oilseed Rape); assay: Post-emergence, damage of crop plants
Method: as §3, §2

[9] = tested on: Triticum aestivum (Wheat); assay: Post-emergence, damage of crop plants
Method: as §3, §2

Matricaria inodora = assay: Pre-emergence herbicidal action; conditions: Dosage 320/ha (Table C)
Description: as §1, §2

Amaranthus retroflexus = assay: Pre-emergence herbicidal action; conditions: Dosage 320/ha (Table C)
Description: as §1, §2

Lolium multiflorum [10] = assay: Pre-emergence herbicidal action
Description: as §1, §2

Echinochloa crus galli = assay: Pre-emergence herbicidal action; conditions: Dosage 320/ha (Table C)
Description: as §1, §2

Abutilon theophrasti = assay: Pre-emergence herbicidal action; conditions: Dosage 320/ha (Table C)
Description: as §1, §2

Alopecurus myosuroides [11] = assay: Pre-emergence herbicidal action; conditions: Dosage 320/ha (Table D)
Description: as §1, §2

Polygonum convolvulus = assay: Pre-emergence herbicidal action
Description: as §1, §2

Cyperus serotinus = assay: Post-emergence herbicidal action; conditions: Dosage 80/ha (Table Q)
Method: as §3, §2

Zea mays (Corn) [12] = assay: Pre-emergence, damage of crop plants; conditions: Dosage 320/ha (Table G)
Description: as §1, §2

Pharbitis purpureum = assay: Post-emergence herbicidal action; conditions: Dosage 20/ha (Table S)
Method: as §3, §2

Zea mays (Corn) [13] = assay: Post-emergence, damage of crop plants; conditions: Dosage 20/ha (Table S)
Method: as §3, §2

Avena fatua [14] = assay: Pre-emergence herbicidal action
Description: as §1, §2

Cc1c(C(=O)Nc2ncco2)ccc(S(C)(=O)=O)c1S(C)(=O)=O [1-163]
damage of crop plants, Crop plant ORYZA (Oryza sativa (Rice) [1]; Dosage 320/ha (Table E)): 0%
damage of crop plants, Crop plant BRSNW ([2]; Dosage 320/ha (Table D)): 10%
damage of crop plants, Crop plant TRZAS ([3]; Dosage 320/ha (Table E)): 0%
herbicidal activity against harmful plants LOMU (Lolium multiflorum [4]; Dosage 80/ha (Table P)): 20%
herbicidal activity against harmful plants AVEFA (Avena fatua [5]): 40%
herbicidal activity against harmful plants SETVI (Setaria viridis; Dosage 80/ha (Table P)): 100%
herbicidal activity against harmful plants ALOMY (Alopecurus myosuroides [6]): 60%
damage of crop plants ORYZA (Oryza sativa (Rice) [7]; Dosage 20/ha (Table O)): 0%
damage of crop plants BRSNW ([8]; Dosage 20/ha (Table O)): 40%
damage of crop plants TRZAS ([9]; Dosage 20/ha (Table O)): 20%
herbicidal activity against harmful plants MATIN (Matricaria inodora): 100%
herbicidal activity against harmful plants AMARE (Amaranthus retroflexus): 90%
herbicidal activity, Harmful plant LOLMU (Lolium multiflorum [10]; Dosage 320/ha (Table E)): 100%
herbicidal activity against harmful plants ECHCG (Echinochloa crus galli): 70%
herbicidal activity against harmful plants ABUTH (Abutilon theophrasti): 100%
herbicidal activity, Harmful plant ALOMY (Alopecurus myosuroides [11]): 30%
herbicidal activity, Harmful plant POLCO (Polygonum convolvulus; Dosage 320/ha (Table E)): 70%

CSc1c(C(F)(F)F)ccc(C(=O)Nc2ncco2)c1C [1-171]
damage of crop plants ORYZA (Oryza sativa (Rice) [1]; Dosage 80/ha (Table A)): 0%
damage of crop plants ORYZA (Oryza sativa (Rice) [1]; Dosage 80/ha (Table B)): 0%
damage of crop plants BRSNW ([2]; Dosage 80/ha (Table A)): 30%
damage of crop plants BRSNW ([2]; Dosage 80/ha (Table B)): 30%
damage of crop plants TRZAS ([3]; Dosage 80/ha (Table A)): 0%
damage of crop plants TRZAS ([3]; Dosage 80/ha (Table B)): 0%
damage of crop plants ORYZA (Oryza sativa (Rice) [7]; Dosage 80/ha (Table M)): 0%
damage of crop plants ORYZA (Oryza sativa (Rice) [7]; Dosage 80/ha (Table N)): 0%
damage of crop plants BRSNW ([8]; Dosage 80/ha (Table M)): 0%
damage of crop plants BRSNW ([8]; Dosage 80/ha (Table N)): 0%
damage of crop plants TRZAS ([9]; Dosage 80/ha (Table M)): 0%
damage of crop plants TRZAS ([9]; Dosage 80/ha (Table N)): 0%

C[S+]([O-])c1c(S(C)(=O)=O)ccc(C(=O)Nc2ncco2)c1Cl (stereo not drawn) [1-284]
herbicidal activity against harmful plants LOLMU (Lolium multiflorum [4]; Dosage 20/ha (Table R)): 60%
herbicidal activity, Harmful plants LOLMU (Lolium multiflorum [4]; Dosage 80/ha (Table Q)): 70%
herbicidal activity against harmful plants SETVI (Setaria viridis; Dosage 20/ha (Table R)): 90%
herbicidal activity, Harmful plants CYPES (Cyperus serotinus): 60%
damage of crop plants, Crop plant ORYZA (Oryza sativa (Rice) [7]; Dosage 80/ha (Table Q)): 20%
herbicidal activity against harmful plants LOLMU (Lolium multiflorum [10]; Dosage 320/ha (Table F)): 100%
herbicidal activity against harmful plants POLCO (Polygonum convolvulus; Dosage 320/ha (Table F)): 70%

C[S+]([O-])c1c(C(F)(F)F)ccc(C(=O)Nc2ncco2)c1Cl (stereo not drawn) [1-294]
damage of crop plants ORYZA (Oryza sativa (Rice) [1]; Dosage 320/ha (Table G)): 30%
damage of crop plants BRSNW ([2]; Dosage 320/ha (Table G)): 20%
damage of crop plants ZEAMX (Zea mays (Corn) [12]): 0%
herbicidal activity, Harmful plant PHBPU (Pharbitis purpureum): 70%
damage of crop plants, Crop plants ORYZA (Oryza sativa (Rice) [7]; Dosage 20/ha (Table S)): 0%
damage of crop plants, Crop plants ZEAMX (Zea mays (Corn) [13]): 0%
damage of crop plants, Crop plants TRZAS ([9]; Dosage 20/ha (Table S)): 0%

CCS(=O)(=O)c1ccc(C(=O)Nc2nc(C)c(C)o2)c(Cl)c1C1=NOC(CC#N)C1 (stereo not drawn) [11-343]
Damage of BRSNW ([8]; 5 g/ha (Table W)): 0%
Damage of BRSNW ([8]; 20 g/ha (Table V)): 0%
Damage of BRSNW ([8]; 20 g/ha (Table W)): 0%
Damage of BRSNW ([8]; 20 g/ha (Table X)): 0%
Damage of BRSNW ([8]; 80 g/ha (Table V)): 0%
Damage of BRSNW ([8]; 80 g/ha (Table X)): 0%
Herbicidal activity against AVEFA (Avena fatua [14]; 20 g/ha (Table K)): 80%
Herbicidal activity against AVEFA (Avena fatua [14]; 20 g/ha (Table L)): 80%
Herbicidal activity against AVEFA (Avena fatua [14]; 80 g/ha (Table J)): 80%
Herbicidal activity against AVEFA (Avena fatua [14]; 80 g/ha (Table K)): 80%
Herbicidal activity against AVEFA (Avena fatua [14]; 80 g/ha (Table L)): 80%
Herbicidal activity against AVEFA (Avena fatua [14]; 320 g/ha (Table J)): 100%

Cc1c(C(=O)Nc2nnnn2C)ccc(S(C)(=O)=O)c1S(C)(=O)=O [WO 2012/028579, No. 1-188]
damage of crop plants ORYZA (Oryza sativa (Rice) [7]; Dosage 20/ha (Table O)): 20%
damage of crop plants BRSNW ([8]; Dosage 20/ha (Table O)): 100%
damage of crop plants TRZAS ([9]; Dosage 20/ha (Table O)): 40%
herbicidal activity against harmful plants MATIN (Matricaria inodora): 40%
herbicidal activity against harmful plants AMARE (Amaranthus retroflexus): 40%
herbicidal activity against harmful plants ECHCG (Echinochloa crus galli): 0%
herbicidal activity against harmful plants ABUTH (Abutilon theophrasti): 0%

CCS(=O)(=O)c1ccc(C(=O)Nc2ncnn2C)c(Cl)c1C1=NOC(CC#N)C1 (stereo not drawn) [WO 2012/028579, No. 1-267]
Damage of BRSNW ([8]; 20 g/ha (Table V)): 90%
Damage of BRSNW ([8]; 80 g/ha (Table V)): 90%
Herbicidal activity against AVEFA (Avena fatua [14]; 80 g/ha (Table J)): 0%
Herbicidal activity against AVEFA (Avena fatua [14]; 320 g/ha (Table J)): 0%

CSc1c(C(F)(F)F)ccc(C(=O)Nc2nnnn2C)c1C [WO 2012/028579, No. 4-135]
damage of crop plants ORYZA (Oryza sativa (Rice) [1]; Dosage 80/ha (Table A)): 60%
damage of crop plants BRSNW ([2]; Dosage 80/ha (Table A)): 80%
damage of crop plants TRZAS ([3]; Dosage 80/ha (Table A)): 60%
damage of crop plants ORYZA (Oryza sativa (Rice) [7]; Dosage 80/ha (Table M)): 100%
damage of crop plants BRSNW ([8]; Dosage 80/ha (Table M)): 100%
damage of crop plants TRZAS ([9]; Dosage 80/ha (Table M)): 100%
